Measured values as given in patent publication US20040259952A1 (priority 2001, published 2004).

Legend:
[1] = cited from earlier work
wheal and flare reaction = test: Wheal and flare reaction after intracutaneous injection of codeine/histamine or allergen/histamine; format: in vivo, human; details: stimulated with codeine
Procedure: From the literature there are indications that nasal and lung mast cells are more sensitive to cromolyn. […] Healthy subjects received codeine/histamine to induce wheal and flare reaction, and allergic subjects received allergen/histamine to induce wheal and flare reaction.
Wheal and flare reaction was read 15 min. after the injections of codeine/histamine or allergen/histamine, traced by pen onto transparent cellophane and the length and width of the reaction was measured. Wheal and flare reaction was measured for Group 1 (healthy subjects) after intracutaneous injection of codeine/histamine before the morning dose on day 1, at 45 minutes after the morning dose on days 1, 2, 4, 6, 8 and 10, and at 4 and 8 hours after the morning dose on days 2, 4 and 10. Wheal and flare reaction was measured for Group 2 (subjects with allergies) after injection with allergen/histamine before the morning dose on day 1, at 60 minutes after the morning dose on days 4 and 10, and at 8 hours after the morning dose on day 4.

[2] = tested on: airway resistance of the sheep after challenge with ascaris; test: Airway resistance after ascaris challenge in sheep given oral cromolyn
Procedure: A control formulation without cromolyn was also administered to an additional group. The biological effect of the cromolyn was assessed using changes in airway resistance of the sheep after challenge with ascaris.

[3] = cited from earlier work; remark: listed apart in the source
[4] = Administration of cromolyn to rats: serum pharmacokinetics by HPLC; format: in vivo, Sprague-Dawley rats
Procedure: Male Sprague-Dawley rats weighing 225-275 grams were fasted for 24 hours. Rats were anesthized by intra-muscular injection with ketamine and thorazine. Experimental groups were dosed by oral gavage or by intravenous injection. Blood samples were collected serially via the tail artery. Serum obtained from whole blood was acidified and cromolyn extracted with ethyl acetate. The ethyl acetate was added to phosphate buffer or back extraction of cromolyn. Pharmacokinetic parameters were determined from extracted serum by HPLC.

[5] = Single escalating dose study of Cromolyn/SNAC capsules: plasma pharmacokinetics of cromolyn and SNAC; details: with SNAC
Procedure: This study was a randomized, open label, oral, single escalating dose administration study in healthy, fasted volunteers.
The study was carried out in two parts. […] Safety and pharmacokinetic measures were collected and evaluated following each dose.
On day one of each study treatment period, medication (capsules) was administered following an 8-hour overnight fast. The capsules were swallowed with up to 120 mL of water to the subjects in an upright position.
The process could be summarized as follows: First, sieve SNAC powder through a screen, or delump it using a pestle/mortar.

[6] = Multiple dose study (twice daily for ten days): plasma pharmacokinetics of cromolyn and SNAC
Procedure: Two groups of human males were defined: group 1 consisted of 12 healthy male volunteers, and group 2 had 12 allergic male volunteers. […] The dosing regimen is illustrated in Table 7 below.
Each subject received oral dosing of the study medication twice a day for nine days. On the last day (i.e., day 10), only the morning dose was administered. The capsules were administered with up to 200 mL of water to the subjects in an upright position. The first dose of each day was administered following an overnight fast, and the second dose of each day was administered at least 1 hour before a meal or 4 hours after a meal. No food was allowed for at least 4 hours before the oral dosing.
Pharmacodynamics were measured for Group 1 and 2 by measuring the length and width of the wheal and flare reaction, and permanent records were generated by marking on transparent tapes and/or by photographs. For Group 2 only, pharmacodynamics were also measured by VAS scores and PNIF measurements before and after nasal provocation test.

[7] = Single dose study: safety and tolerability; format: in vivo, human; details: SNAC administered alone
Procedure: Cromolyn sodium was orally administered to healthy human subjects in a study designed to evaluate the safety, tolerability, oral absorption and pharmacokinetics data following various doses of cromolyn orally administered in combination with the delivery agent SNAC as capsules. […] This study was a randomized, open label, oral, single escalating dose administration study in healthy, fasted volunteers.
On day one of each study treatment period, medication (capsules) was administered following an 8-hour overnight fast. The capsules were swallowed with up to 120 mL of water to the subjects in an upright position. After each dosing, safety, and pharmacokinetic measures were taken, and cromolyn concentrations were evaluated.

[8] = serum cromolyn, Cromolyn 1.5 mg/kg IV

In the case of “5,5′-[(2-hydroxy-1,3-propanediyl)bis-(oxy)]4-oxo-4H-1-benzopyran-2-carboxylic acid [cromolyn]”, the “dose eliminated unchanged in the feces” value ([1]; in vivo) is given as “Roughly 98%”, the absolute bioavailability ([1]; inhalation dose of 20 mg) is given as “about 8%” and the “inhaled dose that reaches the lungs” value ([1]; inhalation) is given as 5-10%. The systemic bioavailability ([1]; oral cromolyn without the delivery agents) was “approximately 1%”, the “effects on skin mast cell degranulation (wheal and flare)” value (wheal and flare reaction) was “no significant effects” and the “mean protection vs. the peak control response” value ([2]; 100 mg/kg cromolyn and 300 mg/kg delivery agent 12 hours prior to challenge) was 77%. The “P-Acaris % (change in airway resistance)” value ([2]; Drug Trial, Means, 300 mg/kg CR-1 & 100 mg/kg Cromolyn oral 12 hrs. before Ag. challenge) was “approximately 157%”, the solubility in water [3] was “freely soluble in water” and the serum cromolyn concentrations ([4]; control group, cromolyn alone) was “No detectable”. The “area under the serum concentration-time curve (AUC)” value ([4]; intravenous cromolyn 1.5 mg/kg) was 20.4 µg·min/mL, the “peak serum concentration (Cmax)” value ([4]; intravenous cromolyn 1.5 mg/kg) was 1300 ng/mL and the “time of peak serum concentration (Tmax)” value ([4]; intravenous cromolyn 1.5 mg/kg) was 0 h. For the same molecule, the “Avg. AUC” value [4, 8] was 20.4 µg·min/mL, the “Avg. Cmax” value [4, 8] was 1300 ng/mL and the Tmax [4, 8] was 0 h. The mean elimination half-life [5] was 60 to 120 min, the “time of maximum plasma concentrations post-dose” value [5] was “about 20 minutes” and the “time within which plasma concentrations declined to negligible levels” value ([6]; after each drug administration) was no more than 4 h. For the same molecule, the “oral absorption (plasma concentration)” value ([6]; cromolyn administered without SNAC) was less than 2.3 ng/mL, the mean plasma concentrations ([6]; cromolyn given in combination with 600 mg SNAC) was “up to 65 ng/mL” and the “time of peak concentrations after drug administration” value ([6]; cromolyn given orally in combination with SNAC, fasting male volunteers) was “approximately 20 minutes”. For the same molecule, the plasma half-life ([6]; multiple dose study) was roughly 45 min.

In the case of O=C([O-])CCCCCCCNC(=O)c1ccccc1O.[Na+] [SNAC, Sodium N-[8-(2-hydroxybenzoyl)amino]caprylate], the “effect on human subjects” value [7] was “did not display any significant effect”, the Tmax ([6]; male, human, in vivo) was roughly 30 min and the half-life ([6]; male, human, in vivo) was roughly 25 min. For the same molecule, the “accumulation during multiple dose treatment” value ([6]; twice daily dosing) was “no accumulation”.
